For 21 compounds, Ki, Selectivity ratio and IC50 results are on record in ChEMBL document CHEMBL1141500, “Thiol-based angiotensin-converting enzyme 2 inhibitors: P1' modifications for the exploration of the S1' subsite” (Bioorg Med Chem Lett, 2008).

Assay [1] deals with T1, Angiotensin-converting enzyme 2 (Homo sapiens, UniProt Q9BYF1). The assay can be described thus: Inhibition of human recombinant ACE2 by fluorescence assay. The settings on record: read-out: Ki app.
Assay [2] addresses Angiotensin-converting enzyme (Homo sapiens, UniProt P12821). The assay can be described thus: Inhibition of human recombinant ACE by fluorescence assay. The settings on record: read-out: Ki app.
For assay [3], the target named is Neprilysin (Homo sapiens, UniProt P08473). The assay can be described thus: Inhibition of human recombinant NEP by fluorescence assay. The conditions noted are these: read-out: Ki app.
Assay [4] concerns the target T2, Carboxypeptidase A1 (Homo sapiens, UniProt P15085).
T2 sequence (P15085 whole entry): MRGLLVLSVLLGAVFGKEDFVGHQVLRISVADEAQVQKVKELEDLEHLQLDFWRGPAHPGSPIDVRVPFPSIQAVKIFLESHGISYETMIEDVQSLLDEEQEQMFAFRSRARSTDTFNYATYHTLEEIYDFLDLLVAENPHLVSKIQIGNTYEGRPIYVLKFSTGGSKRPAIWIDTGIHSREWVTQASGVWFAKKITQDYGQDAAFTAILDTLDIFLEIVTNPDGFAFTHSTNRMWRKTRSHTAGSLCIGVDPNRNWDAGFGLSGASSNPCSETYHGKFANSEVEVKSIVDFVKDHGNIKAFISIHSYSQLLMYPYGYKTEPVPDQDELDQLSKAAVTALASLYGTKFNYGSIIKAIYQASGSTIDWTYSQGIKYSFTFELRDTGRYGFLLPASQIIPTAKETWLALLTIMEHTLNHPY
Nature of the assay: Inhibition of human recombinant CpA by fluorescence assay. The settings on record: read-out: Ki app.

The species named for assay [5] is Homo sapiens. Nature of the assay: Selectivity for human recombinant ACE2 over human recombinant NEP.
Assay [6] is filed under the species Homo sapiens. Nature of the assay: Selectivity for human recombinant ACE2 over human recombinant ACE.
The species entered for assay [7] is Homo sapiens. Nature of the assay: Selectivity for human recombinant ACE2 over human recombinant CpA.
In assay [8] the target is T1, Angiotensin-converting enzyme 2. The assay can be described thus: Inhibition of ACE2.

Neprilysin, sequence (P08473 whole entry): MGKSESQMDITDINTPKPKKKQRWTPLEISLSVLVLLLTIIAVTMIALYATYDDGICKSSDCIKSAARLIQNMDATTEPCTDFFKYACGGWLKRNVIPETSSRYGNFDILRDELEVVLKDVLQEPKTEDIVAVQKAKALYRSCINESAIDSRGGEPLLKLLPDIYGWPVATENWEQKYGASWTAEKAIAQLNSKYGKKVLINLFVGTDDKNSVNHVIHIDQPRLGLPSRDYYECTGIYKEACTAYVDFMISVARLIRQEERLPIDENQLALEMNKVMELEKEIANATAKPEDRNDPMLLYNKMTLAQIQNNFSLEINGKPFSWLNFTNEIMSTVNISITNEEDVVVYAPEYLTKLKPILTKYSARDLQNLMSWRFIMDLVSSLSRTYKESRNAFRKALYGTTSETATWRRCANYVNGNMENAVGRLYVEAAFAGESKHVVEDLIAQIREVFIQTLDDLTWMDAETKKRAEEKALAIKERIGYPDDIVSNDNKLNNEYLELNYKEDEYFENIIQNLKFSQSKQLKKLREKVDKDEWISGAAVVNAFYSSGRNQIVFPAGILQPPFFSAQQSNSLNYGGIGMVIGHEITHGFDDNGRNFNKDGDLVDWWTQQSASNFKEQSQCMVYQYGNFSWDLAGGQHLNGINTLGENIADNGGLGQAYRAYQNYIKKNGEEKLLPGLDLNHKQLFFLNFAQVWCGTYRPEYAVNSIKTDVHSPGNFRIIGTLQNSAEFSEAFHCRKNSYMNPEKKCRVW
T1 sequence (Q9BYF1 whole entry): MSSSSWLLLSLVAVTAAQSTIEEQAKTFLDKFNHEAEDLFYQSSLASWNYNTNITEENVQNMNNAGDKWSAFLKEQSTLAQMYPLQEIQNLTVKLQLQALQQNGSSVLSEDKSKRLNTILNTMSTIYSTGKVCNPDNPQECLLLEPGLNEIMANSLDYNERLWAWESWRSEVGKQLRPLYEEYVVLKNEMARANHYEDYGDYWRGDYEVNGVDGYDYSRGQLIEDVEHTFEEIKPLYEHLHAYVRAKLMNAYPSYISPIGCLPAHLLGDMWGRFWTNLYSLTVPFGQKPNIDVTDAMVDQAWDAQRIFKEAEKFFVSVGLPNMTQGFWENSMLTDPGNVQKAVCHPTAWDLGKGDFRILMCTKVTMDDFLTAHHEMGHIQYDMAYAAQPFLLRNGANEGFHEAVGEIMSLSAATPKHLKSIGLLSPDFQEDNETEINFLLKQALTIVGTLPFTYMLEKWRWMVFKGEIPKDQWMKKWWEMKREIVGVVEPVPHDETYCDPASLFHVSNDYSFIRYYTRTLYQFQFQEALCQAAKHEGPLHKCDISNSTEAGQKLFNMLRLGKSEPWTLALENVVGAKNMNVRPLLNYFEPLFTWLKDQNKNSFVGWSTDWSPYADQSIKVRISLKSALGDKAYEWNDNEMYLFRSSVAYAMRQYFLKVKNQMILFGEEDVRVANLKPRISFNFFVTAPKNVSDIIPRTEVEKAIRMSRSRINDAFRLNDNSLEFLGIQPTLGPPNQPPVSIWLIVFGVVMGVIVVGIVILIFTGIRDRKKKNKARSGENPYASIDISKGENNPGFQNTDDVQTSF
Angiotensin-converting enzyme, sequence (P12821 whole entry): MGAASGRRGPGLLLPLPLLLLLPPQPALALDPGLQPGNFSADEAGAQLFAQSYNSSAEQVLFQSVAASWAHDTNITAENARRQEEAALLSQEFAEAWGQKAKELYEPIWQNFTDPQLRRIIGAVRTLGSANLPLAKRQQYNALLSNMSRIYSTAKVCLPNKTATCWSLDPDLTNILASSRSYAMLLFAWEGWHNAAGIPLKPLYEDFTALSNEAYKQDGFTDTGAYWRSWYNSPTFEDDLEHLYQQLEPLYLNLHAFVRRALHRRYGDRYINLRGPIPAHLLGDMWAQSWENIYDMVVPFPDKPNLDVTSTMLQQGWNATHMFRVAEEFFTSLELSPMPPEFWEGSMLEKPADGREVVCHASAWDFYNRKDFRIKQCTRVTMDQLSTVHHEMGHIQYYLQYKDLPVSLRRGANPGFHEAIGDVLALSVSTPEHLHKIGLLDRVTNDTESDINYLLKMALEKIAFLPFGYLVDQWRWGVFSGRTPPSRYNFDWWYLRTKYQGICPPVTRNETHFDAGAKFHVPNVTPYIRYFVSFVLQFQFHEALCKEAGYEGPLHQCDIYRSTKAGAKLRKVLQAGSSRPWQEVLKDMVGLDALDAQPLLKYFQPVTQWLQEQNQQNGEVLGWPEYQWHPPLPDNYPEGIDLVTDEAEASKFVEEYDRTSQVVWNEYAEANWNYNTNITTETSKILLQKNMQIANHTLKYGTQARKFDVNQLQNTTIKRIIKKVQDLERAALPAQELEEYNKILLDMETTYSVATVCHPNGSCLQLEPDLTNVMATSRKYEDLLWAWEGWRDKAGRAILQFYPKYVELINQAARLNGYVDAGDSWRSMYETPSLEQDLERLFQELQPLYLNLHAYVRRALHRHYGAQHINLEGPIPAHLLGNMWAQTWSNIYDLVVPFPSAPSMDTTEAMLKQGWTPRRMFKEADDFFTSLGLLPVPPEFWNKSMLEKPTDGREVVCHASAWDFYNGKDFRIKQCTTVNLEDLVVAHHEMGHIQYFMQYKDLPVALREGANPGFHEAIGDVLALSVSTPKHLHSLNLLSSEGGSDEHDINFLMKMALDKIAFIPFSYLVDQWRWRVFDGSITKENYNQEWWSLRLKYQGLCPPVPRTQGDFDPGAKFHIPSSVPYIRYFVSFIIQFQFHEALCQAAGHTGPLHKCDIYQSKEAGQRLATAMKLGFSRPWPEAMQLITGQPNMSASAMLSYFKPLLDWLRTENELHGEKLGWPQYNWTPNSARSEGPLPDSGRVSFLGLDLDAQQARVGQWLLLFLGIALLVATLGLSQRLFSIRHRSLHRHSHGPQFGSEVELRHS

In the case of `CC[C@@H](C)[C@H](S)C(=O)N[C@@H](Cc1cccc(Oc2ccccc2)c1)C(=O)O`, the Ki in assay [1] worked out at 5.8 nM; in assay [2] it was 1100 nM; in assay [3] it was 79 nM; in assay [4], 14000 nM.

As for `CC[C@@H](C)[C@H](S)C(=O)N[C@@H](Cc1cccc(OCc2ccccc2)c1)C(=O)O`, the Ki in assay [1] was determined as 2.4 nM; in assay [2], 750 nM; in assay [3] it was 37 nM; in assay [4], 5000 nM. In addition, in assay [5], the Selectivity ratio was 15.

Turning to `CC[C@@H](C)[C@H](S)C(=O)N[C@@H](Cc1ccc(OCc2ccc(F)cc2F)cc1)C(=O)O`, the Ki came out at 2 nM in assay [1], 950 nM in assay [2], 75 nM in assay [3] and 1900 nM in assay [4].

On to `CC[C@@H](C)[C@H](S)C(=O)N[C@@H](Cc1ccc2ccccc2c1)C(=O)O`, for which the Ki worked out at 2.4 nM in assay [1], 310 nM in assay [2], 46 nM in assay [3] and 7200 nM in assay [4]. For the same compound, the Selectivity ratio in assay [6] and in assay [7] was above 100 each time.

Regarding `CC[C@@H](C)[C@H](S)C(=O)N[C@@H](Cc1cccc(-c2ccccc2)c1)C(=O)O`, the Ki amounted to 2.2 nM in assay [1], 1000 nM in assay [2], 19 nM in assay [3] and 5000 nM in assay [4].

With `CC[C@@H](C)[C@H](S)C(=O)N[C@@H](Cc1ccccc1Oc1ccccc1)C(=O)O`, the Ki was 0.9 nM in assay [1], 5000 nM in assay [2], 180 nM in assay [3] and 2300 nM in assay [4]. The Selectivity ratio in assay [5] was determined as 200.

`CC[C@@H](C)[C@H](S)C(=O)N[C@@H](Cc1ccc(OCc2ccc(C(F)(F)F)cc2)cc1)C(=O)O`: the Ki in assay [1] came out at 35 nM; in assay [2], 2600 nM; in assay [3], 1500 nM; in assay [4], 4600 nM.

Regarding `CC[C@@H](C)[C@H](S)C(=O)N[C@@H](Cc1ccc(O)cc1)C(=O)O`, the Ki in assay [1] came to 1.3 nM; in assay [2], 410 nM; in assay [3], 75 nM; in assay [4] it was 350 nM.

Regarding `CC[C@@H](C)[C@H](S)C(=O)N[C@@H](Cc1ccc(OCc2ccc(F)cc2)cc1)C(=O)O`, the Ki in assay [1] was determined as 2.5 nM; in assay [2], 4000 nM; in assay [3], 180 nM; in assay [4], 16000 nM.

What is called IC50 is the concentration that gives 50% inhibition. With `NCCNCCN1CC1`, in assay [8], the IC50 amounted to 57000 nM.

With `CC[C@@H](C)[C@H](S)C(=O)N[C@@H](Cc1ccc(Oc2ccccc2)cc1)C(=O)O`, the Ki in assay [1] is 2.2 nM; in assay [2], 250 nM; in assay [3] it was 10 nM; in assay [4], 8900 nM. In addition, in assay [6], the Selectivity ratio was above 100.

With `CC[C@@H](C)[C@H](S)C(=O)N[C@@H](Cc1cccc2ccccc12)C(=O)O`, the Ki in assay [1] was 2.2 nM; in assay [2], 1800 nM; in assay [3], 12 nM; in assay [4], 3600 nM. Besides, the Selectivity ratio in assay [6] and in assay [7] was above 100 each time.

In the case of `CC[C@@H](C)[C@H](S)C(=O)N[C@@H](Cc1ccccc1)C(=O)O`, the Ki stood at 1.5 nM in assay [1], 570 nM in assay [2], 35 nM in assay [3] and 530 nM in assay [4].

On to `CC[C@@H](C)[C@H](S)C(=O)N[C@@H](Cc1ccccc1OCc1ccccc1)C(=O)O`, for which the Ki was 6 nM in assay [1], 770 nM in assay [2], 120 nM in assay [3] and 1600 nM in assay [4]. The Selectivity ratio in assay [5] turned out to be 20.

For the compound `CC[C@@H](C)[C@H](S)C(=O)N[C@@H](Cc1ccccc1-c1ccccc1)C(=O)O`, the Ki came to 37 nM in assay [1], 20000 nM in assay [2], 190 nM in assay [3] and 9900 nM in assay [4].

As for `CC[C@@H](C)[C@H](S)C(=O)N[C@@H](Cc1ccc(OCc2ccc(F)c(F)c2)cc1)C(=O)O`, the Ki in assay [1] is 0.85 nM; in assay [2], 1800 nM; in assay [3], 640 nM; in assay [4], 3300 nM. Further, the Selectivity ratio in assay [6] and in assay [7] was above 750 each time.

Regarding `CC[C@@H](C)[C@H](S)C(=O)N[C@@H](Cc1ccc(OCc2cc(C(F)(F)F)cc(C(F)(F)F)c2)cc1)C(=O)O`, the Ki in assay [1] turned out to be 84 nM; in assay [2], 25000 nM; in assay [3] it was 11000 nM; in assay [4] it was 11000 nM.

As for `CC[C@@H](C)[C@H](S)C(=O)N[C@@H](Cc1ccc(OCc2ccccc2)cc1)C(=O)O`, the Ki worked out at 2.7 nM in assay [1], 570 nM in assay [2], 300 nM in assay [3] and 4600 nM in assay [4]. For the same compound, in assay [5], the Selectivity ratio came out at 110.

As for `CC[C@@H](C)[C@H](S)C(=O)N[C@@H](C)C(=O)O`, the Ki in assay [1] came to 14 nM; in assay [2] it was 180 nM; in assay [3] it was 950 nM; in assay [4], 11000 nM.

As for `CC[C@@H](C)[C@H](S)C(=O)NCC(=O)O`, the Ki in assay [1] came to 90 nM; in assay [2], 250 nM; in assay [3] it was 5100 nM; in assay [4], 35000 nM.

Compound `CC(=O)NCC(=O)N[C@@H](CC(=O)O)C(=O)N[C@@H](Cc1ccc(O)cc1)C(=O)N[C@@H](CO)C(=O)N[C@@H](Cc1cnc[nH]1)C(=O)N[C@H]1CSSC[C@@H](C(=O)N[C@H](C(=O)N[C@@H](Cc2ccc(O)cc2)C(=O)N2CCC[C@H]2C(=O)N[C@@H](CC(=O)O)C(=O)N2CCC[C@H]2C(=O)N[C@@H](CCC(=O)O)C(=O)NCC(=O)NCC(=O)NCC(N)=O)[C@@H](C)O)NC(=O)[C@H](CCCCN)NC(=O)[C@H](Cc2c[nH]c3ccccc23)NC(=O)[C@H](Cc2c[nH]c3ccccc23)NC(=O)[C@@H]2CCCN2C(=O)[C@H](Cc2ccc(O)cc2)NC(=O)[C@H](Cc2ccc(O)cc2)NC(=O)[C@H](CCCNC(=N)N)NC(=O)[C@H](CC(C)C)NC(=O)[C@@H]2CCCN2C(=O)[C@H](CO)NC1=O` displayed an IC50 in assay [8] of 10 nM.
